Experimental data reported in patent US12699067B2, “Electrochemical biosensor and the manufacturing method thereof” (China Medical University, priority 2023, dated 2026).

System: human non-small cell lung cancer cell line (A549 cell line)
Test: Detection of heat shock protein (Hsp70) released from paclitaxel-treated A549 cells with the Hsp70 electrochemical immunosensor
Assay type: cell-based
Details: A549 cell line treated with 0, 75, 100 μM Paclitaxel; culture solution as control; FIG. 12
Excerpt: It was known that the expression of heat shock protein (Hsp70) was highly correlated with the growth of cancer cells. The present invention further uses Hsp70 electrochemical immunosensor (BSA/antiHsp70/EN-LC/Au@MnO2/MoO3) to detect heat shock protein (Hsp70) in human non-small cell lung cancer cell line (A549 cell line).
Therefore, the Hsp70 electrochemical immunosensor provided by the present invention could be used for detecting heat shock protein (Hsp70).

CC(=O)O[C@H]1C(=O)[C@@]2(C)[C@H]([C@H](OC(=O)c3ccccc3)[C@]3(O)C[C@H](OC(=O)[C@H](O)[C@@H](NC(=O)c4ccccc4)c4ccccc4)C(C)=C1C3(C)C)[C@]1(OC(C)=O)CO[C@@H]1C[C@@H]2O [paclitaxel, Paclitaxel]
curve (the radius) of Hsp70 electrochemical immunosensor, indicating bound heat shock protein (Hsp70) released by the cells: increased
